In the supplement of paper PMC10307832:

Columns and labels:
Assay in all cases: relative viability (nuclei count vs DMSO), 5 days (fraction); higher = more cells survive
VE-821 + OSI-027 = compound: CS(=O)(=O)c1ccc(-c2cnc(N)c(C(=O)Nc3ccccc3)n2)cc1 [VE-821] + COc1cccc2cc(-c3nc([C@H]4CC[C@H](C(=O)O)CC4)n4ncnc(N)c34)[nH]c12 [OSI-027] (partner 0.5 µM)
Method in brief: (§1)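 For relative viability, nuclei counts in treated wells were divided by those in vehicle wells. Lung cancer cell lines had been pin-tool dosed in 1536-well plates the day after seeding and cultured for 5 days, then fixed and stained in one step (final 0.05% Triton X-100, 1% formaldehyde, 1 ug/ml Hoechst) and imaged at 4×. Doses were one drug alone or a fixed anchor-drug dose plus five library-drug doses (not always all listed) in √10 steps, and values are duplicate-plate medians.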

Ruxolitinib + Linsitinib = compound: N#CC[C@H](C1CCCC1)n1cc(-c2ncnc3[nH]ccc23)cn1 [Ruxolitinib] + C[C@]1(O)C[C@@H](c2nc(-c3ccc4ccc(-c5ccccc5)nc4c3)c3c(N)nccn32)C1 [Linsitinib] (partner 1 µM)
Method in brief: as §1

Ruxolitinib + Tozasertib = compound: N#CC[C@H](C1CCCC1)n1cc(-c2ncnc3[nH]ccc23)cn1 [Ruxolitinib] + Cc1cc(Nc2cc(N3CCN(C)CC3)nc(Sc3ccc(NC(=O)C4CC4)cc3)n2)n[nH]1 [Tozasertib] (partner 0.1 µM)
Method in brief: as §1

VE-821 + Trametinib = compound: CS(=O)(=O)c1ccc(-c2cnc(N)c(C(=O)Nc3ccccc3)n2)cc1 [VE-821] + CC(=O)Nc1cccc(-n2c(=O)n(C3CC3)c(=O)c3c(Nc4ccc(I)cc4F)n(C)c(=O)c(C)c32)c1 [Trametinib] (partner 0.02 µM)
Method in brief: as §1

Row | Cell Line | relative viability (VE-821 + OSI-027; first compound 0.08 µM) | relative viability (VE-821 + OSI-027; first compound 0.253 µM) | relative viability (VE-821 + OSI-027; first compound 0.8 µM) | relative viability (VE-821 + OSI-027; first compound 2.53 µM) | relative viability (VE-821 + OSI-027; first compound 8 µM) | relative viability (Ruxolitinib + Linsitinib; first compound 0.08 µM) | relative viability (Ruxolitinib + Linsitinib; first compound 0.253 µM) | relative viability (Ruxolitinib + Linsitinib; first compound 0.8 µM) | relative viability (Ruxolitinib + Linsitinib; first compound 2.53 µM) | relative viability (Ruxolitinib + Linsitinib; first compound 8 µM) | relative viability (Ruxolitinib + Tozasertib; first compound 0.08 µM) | relative viability (Ruxolitinib + Tozasertib; first compound 0.253 µM) | relative viability (Ruxolitinib + Tozasertib; first compound 0.8 µM) | relative viability (Ruxolitinib + Tozasertib; first compound 2.53 µM) | relative viability (Ruxolitinib + Tozasertib; first compound 8 µM) | relative viability (VE-821 + Trametinib; first compound 0.08 µM) | relative viability (VE-821 + Trametinib; first compound 0.253 µM) | relative viability (VE-821 + Trametinib; first compound 0.8 µM) | relative viability (VE-821 + Trametinib; first compound 2.53 µM) | relative viability (VE-821 + Trametinib; first compound 8 µM)
1 | HCC-366 | 0.931 | 0.789 | 0.605 | 0.492 | 0.138 | 0.595 | 0.401 | 0.647 | 0.535 | 0.541 | 0.117 | 0.113 | 0.192 | 0.0897 | 0.101 | 0.38 | 0.381 | 0.293 | 0.13 | 0.0642
2 | HCC-827 | 0.845 | 0.865 | 0.886 | 0.838 | 0.683 |  | 1.03 | 0.913 | 0.972 | 0.803 |  | 0.342 | 0.35 | 0.397 | 0.386 | 0.613 | 0.524 | 0.565 | 0.52 | 0.499
3 | HOP-62 | 1.04 | 0.809 | 0.73 | 0.925 | 0.697 |  | 0.995 | 1.05 | 0.991 | 0.867 | 0.345 | 0.394 | 0.415 | 0.402 | 0.348 | 0.402 | 0.413 | 0.351 | 0.403 | 0.429
4 | IA-LM |  |  |  |  |  | 0.652 | 0.662 | 0.719 | 0.518 | 0.469 |  |  |  |  |  |  |  |  |  | 
5 | LC-2-ad | 0.878 | 0.945 | 0.986 | 0.928 | 0.789 | 0.741 | 0.86 | 0.814 | 0.68 | 0.496 |  | 0.435 | 0.548 | 0.482 | 0.515 | 0.985 | 0.886 | 0.879 | 0.912 | 0.956
6 | LCLC-97TM1 | 0.564 | 0.506 | 0.669 | 0.786 | 0.668 | 0.195 | 0.151 | 0.189 | 0.22 | 0.219 | 0.178 | 0.316 | 0.229 | 0.305 | 0.348 | 0.225 | 0.152 | 0.194 | 0.227 | 0.217
7 | LCLC-103H | 0.478 | 0.478 | 0.404 | 0.468 | 0.365 | 1.2 | 1.24 | 1.25 | 1.04 | 1.03 | 0.492 | 0.519 | 0.595 | 0.552 | 0.501 | 0.748 | 0.662 | 0.675 | 0.68 | 0.663
8 | LK-2 | 0.194 | 0.203 | 0.245 | 0.221 | 0.176 | 0.459 | 0.715 | 0.722 | 0.36 | 0.765 | 0.162 | 0.199 | 0.168 | 0.166 | 0.171 | 1.02 | 0.775 | 0.734 | 0.897 | 0.818
9 | LOU-NH91 | 0.731 | 0.71 | 0.766 | 0.778 | 0.747 | 0.663 | 0.895 | 1.14 | 0.895 | 0.872 |  | 0.627 | 0.744 | 0.65 | 0.632 | 0.813 | 0.784 | 0.776 | 0.821 | 0.752
10 | LU99A | 0.298 | 0.304 | 0.292 | 0.257 | 0.244 | 0.549 | 0.499 | 0.541 | 0.554 | 0.499 | 0.296 | 0.26 | 0.298 | 0.303 | 0.316 | 0.532 | 0.541 | 0.572 | 0.528 | 0.29
11 | NCI-H522 | 0.718 | 0.779 | 0.76 | 0.65 | 0.677 |  |  |  |  |  | 0.576 | 0.567 | 0.602 | 0.533 | 0.524 | 0.859 | 0.753 | 0.65 | 0.769 | 0.717
12 | NCI-H1299 |  |  |  |  |  | 0.981 | 0.974 | 0.975 | 0.917 | 0.871 |  |  |  |  |  |  |  |  |  | 
13 | NCI-H1563 | 0.736 | 0.727 | 0.713 | 0.751 | 0.718 | 1.18 | 1.21 | 1.25 | 1.16 | 1.09 |  |  |  |  |  |  |  |  |  | 
14 | NCI-H1623 | 0.48 | 0.489 | 0.543 | 0.454 | 0.379 |  |  |  |  |  | 0.488 | 0.485 | 0.49 | 0.49 | 0.479 |  |  |  |  | 
15 | NCI-H1648 | 0.291 | 0.25 | 0.244 | 0.246 | 0.239 |  |  |  |  |  |  | 0.414 | 0.747 | 0.878 | 1.14 | 0.581 |  | 0.394 | 0.729 | 0.575
16 | NCI-H1650 | 0.757 | 0.542 | 0.546 | 0.613 | 0.415 |  |  |  |  |  |  | 0.503 | 0.386 | 0.455 | 0.357 | 0.869 | 0.453 | 0.668 | 0.586 | 0.402
17 | NCI-H1703 |  |  |  |  |  | 1.07 | 0.624 | 1.25 | 0.451 | 0.547 |  |  |  |  |  |  |  |  |  | 
18 | NCI-H1792 | 0.725 | 0.786 | 0.608 | 0.447 | 0.484 | 0.495 | 0.504 | 0.488 | 0.417 | 0.499 |  |  |  |  |  | 0.505 | 0.464 | 0.361 | 0.65 | 0.492
19 | NCI-H2170 | 0.638 | 0.757 | 0.732 | 0.648 | 0.636 |  |  |  |  |  | 0.804 | 0.689 | 0.768 | 0.77 | 0.6 | 0.977 | 0.865 | 0.947 | 0.819 | 0.629
20 | NCI-H2342 | 0.648 | 0.54 | 0.639 | 0.584 | 0.527 |  |  |  |  |  | 0.529 | 0.556 | 0.486 | 0.479 | 0.532 | 0.804 | 0.907 | 0.8 | 0.849 | 0.492
21 | SW 900 | 0.459 | 0.444 | 0.527 | 0.552 | 0.382 |  |  |  |  |  | 0.581 | 0.649 | 0.499 | 0.534 | 0.625 | 0.675 | 0.792 | 0.687 | 0.706 | 0.403
